SMILES strings stand for the structures.

Assay type in all cases: binding
For one assay, the target named is T1, VdesOBP1 (Varroa destructor, UniProt A0A7M7KVA6).
T1 construct: 147 residues; monomer
T1 sequence (A0A7M7KVA6 16-162): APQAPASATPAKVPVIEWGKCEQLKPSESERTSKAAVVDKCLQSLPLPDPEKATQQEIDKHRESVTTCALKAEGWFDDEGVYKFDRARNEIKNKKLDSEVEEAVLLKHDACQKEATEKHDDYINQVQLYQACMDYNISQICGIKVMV
Nature of the assay: intrinsic tryptophan fluorescence quenching.

A further assay has as its target T2, VdesOBP5 (Varroa destructor, UniProt A0A7M7KHR4).
T2 sequence (A0A7M7KHR4 22-231): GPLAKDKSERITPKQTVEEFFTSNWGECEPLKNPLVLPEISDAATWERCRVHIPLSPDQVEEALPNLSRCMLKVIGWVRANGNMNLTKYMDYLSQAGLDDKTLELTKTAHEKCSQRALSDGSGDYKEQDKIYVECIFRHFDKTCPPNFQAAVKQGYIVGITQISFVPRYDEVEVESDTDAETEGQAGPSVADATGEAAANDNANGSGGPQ
Description: fluorescent probe titration. Conditions: read-out: KNPN. The source says:
fluorescent probe titration on VdesOBP5 | with VdesOBP4 and VdesOBP5 we obtained clear binding curves using 1-NPN as the fluorescent reporter

The target in another assay is T3, VdesOBP2 (Varroa destructor, UniProt A0A7M7JBN7).
T3 sequence (A0A7M7JBN7 16-163 limits assumed): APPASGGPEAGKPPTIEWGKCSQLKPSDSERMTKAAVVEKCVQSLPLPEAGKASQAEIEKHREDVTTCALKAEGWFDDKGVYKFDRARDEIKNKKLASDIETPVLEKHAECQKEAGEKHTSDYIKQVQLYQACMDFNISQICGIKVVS
Description: intrinsic tryptophan fluorescence quenching. The settings on record: excitation 295 nm, emission 335-340 nm.

Setting [1] is: excitation 295 nm, emission 335-340 nm.

`c1ccc(Nc2cccc3ccccc23)cc1` [N-phenyl-1-naphthylamine]: the “quenching of intrinsic tryptophan fluorescence” value (“quenching” below) at VdesOBP1 (dose-dependent quenching, probe emission itself unchanged) is recorded as “we observed a dose-dependent quenching of the intrinsic tryptophan fluorescence”. Also, the Kd at VdesOBP5 amounted to 4.3 µM.
With `COc1cc(/C=C/C=O)ccc1O` [coniferyl aldehyde], the “quenching” value was “they determined significant quenching of intrinsic tryptophan fluorescence in VdesOBP1 and VdesOBP2” on VdesOBP2; “they determined significant quenching of intrinsic tryptophan fluorescence in VdesOBP1 and VdesOBP2” on VdesOBP1 (setting [1]).
For the molecule `CC1=C(C=O)C(C)(C)CC=C1` [safranal], the “quenching” value on VdesOBP2 is “they determined significant quenching of intrinsic tryptophan fluorescence in VdesOBP1 and VdesOBP2”; at VdesOBP1 (setting [1]), “they determined significant quenching of intrinsic tryptophan fluorescence in VdesOBP1 and VdesOBP2”.
In the case of `COc1cc(C=O)ccc1O` [vanillin], the “quenching” value at VdesOBP2 was “they determined significant quenching of intrinsic tryptophan fluorescence in VdesOBP1 and VdesOBP2”; on VdesOBP1 (setting [1]) it was “they determined significant quenching of intrinsic tryptophan fluorescence in VdesOBP1 and VdesOBP2”.
